Entries after “also recorded” stand apart in the source; their conditions may differ. Like-named read-outs stand apart in the source and are kept apart here.
Experiments:
CPG2 = CPG2 (Pseudomonas sp., UniProt P06621); assay type: biochemical, bacterial
[1] = tested on: colorectal cell line LS174T; experiment: cells; conditions: Homo sapiens, 1 h
[2] = tested on: colorectal cell line LS174T
[3] = ph stat, naoh titration

Sequence of CPG2 (P06621 23-415): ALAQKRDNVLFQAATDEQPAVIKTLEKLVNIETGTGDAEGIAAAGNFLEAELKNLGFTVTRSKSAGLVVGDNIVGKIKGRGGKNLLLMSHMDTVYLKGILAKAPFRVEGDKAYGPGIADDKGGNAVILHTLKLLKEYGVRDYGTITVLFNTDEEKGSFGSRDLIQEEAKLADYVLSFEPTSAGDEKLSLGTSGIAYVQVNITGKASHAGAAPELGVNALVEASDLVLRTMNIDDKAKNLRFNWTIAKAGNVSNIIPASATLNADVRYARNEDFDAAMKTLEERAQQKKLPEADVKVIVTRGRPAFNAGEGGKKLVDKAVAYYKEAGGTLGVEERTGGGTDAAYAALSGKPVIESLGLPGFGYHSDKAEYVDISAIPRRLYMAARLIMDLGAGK

| Structure (SMILES) | Ability of prodrug to act as CPG2 substrate (in words) (CPG2) | IC50 ([1]; read-out: Prodrug + CPG2 IC50) [µM] | IC50 ([1]; read-out: Prodrug IC50) [µM] | Active Drug t1/2 (chemical half-life) [3] [min] | IC50 ([1]; read-out: Active Drug IC50) [µM] | other results |
| --- | --- | --- | --- | --- | --- | --- |
| CS(=O)(=O)OCCN(CCOS(C)(=O)=O)c1ccc(C(=O)N[C@@H](CCC(=O)O)C(=O)O)c(F)c1 [Compound 7, 2-fluoro, 4-[bis-[2-(mesyloxy)ethyl]amino]benzoyl-L-glutamic acid] | such a poor substrate that it was not possible to measure its kinetics; also recorded: very poor substrate | > 800 | > 800 | – | – | – |
| CS(=O)(=O)OCCN(CCCl)c1ccc(C(=O)N[C@@H](CCC(=O)O)C(=O)O)c(F)c1 [Compound 8, 2-fluoro, 4-[(2-chloroethyl)[2-(mesyloxy)ethyl]amino]benzoyl-L-glutamic acid] | good substrates | > 800 | > 800 | – | – | – |
| O=C(O)CC[C@H](NC(=O)c1ccc(N(CCCl)CCCl)cc1F)C(=O)O [Compound 9, 2-fluoro, 4-[bis(2-chloroethyl)amino]benzoyl-L-glutamic acid] | good substrates | – | – | – | – | kcat (CPG2): 462 S^-1; IC50 ([2]; read-out: Prodrug + CPG2 IC50): > 800 µM; IC50 ([2]; read-out: Prodrug IC50): > 800 µM |
| CS(=O)(=O)OCCN(CCCl)c1ccc(C(=O)O)c(F)c1 [Compound 11] | – | – | – | 192 | > 800 | – |
| CS(=O)(=O)OCCN(CCOS(C)(=O)=O)c1ccc(C(=O)N[C@@H](CCC(=O)O)C(=O)O)cc1F [Compound 19] | good substrates | 480 | > 800 | – | – | – |
| CS(=O)(=O)OCCN(CCCl)c1ccc(C(=O)N[C@@H](CCC(=O)O)C(=O)O)cc1F [Compound 20, 3-fluoro, 4-[(2-chloroethyl)[2-(mesyloxy)ethyl]amino]benzoyl-L-glutamic acid] | good substrates | 350 | > 800 | – | – | Prodrug t1/2 (chemical half-life) [3]: 122 min |
| O=C(O)CC[C@H](NC(=O)c1ccc(N(CCCl)CCCl)c(F)c1)C(=O)O [Compound 21, 3-fluoro, 4-[bis(2-chloroethyl) ,amino] benzoyl-L-glutamic acid] | good substrates | – | – | – | – | kcat (CPG2): 1028 S^-1; IC50 ([2]; read-out: Prodrug + CPG2 IC50): 390 µM; IC50 ([2]; read-out: Prodrug IC50): > 800 µM |
| CS(=O)(=O)OCCN(CCOS(C)(=O)=O)c1ccc(C(=O)O)cc1F [Compound 22] | – | – | – | 1.9 | 480 | – |
| CS(=O)(=O)OCCN(CCCl)c1ccc(C(=O)O)cc1F [Compound 23] | – | – | – | 2.4 | 280 | – |
| CS(=O)(=O)OCCN(CCOS(C)(=O)=O)c1ccc(C(=O)N[C@@H](CCC(=O)O)C(=O)O)cc1 [Compound 25, reference compound] | – | – | – | – | – | Prodrug t1/2 (chemical half-life) [3]: 42 min |
| CS(=O)(=O)OCCN(CCCl)c1ccc(C(=O)N[C@@H](CCC(=O)O)C(=O)O)cc1 [Compound 26, 4[(2chloroethyl)[2(mesyloxy)ethyl]amino]benzoylL-glutamic acid, reference compound] | – | 200 | > 800 | – | – | Prodrug t1/2 (chemical half-life) [3]: 984 min; Prodrug activity (increased cytotoxicity on conversion by CPG2) [2]: substantial prodrug activity |
| CS(=O)(=O)OCCN(CCCl)c1ccc(C(=O)O)cc1 [Compound 29, reference compound] | – | – | – | 58 | 185 | – |

From patent US5811454A (priority 1993, dated 1998)
